From ChEMBL document CHEMBL1142678, “Discovery and structure-activity relationship of quinuclidine benzamides as agonists of alpha7 nicotinic acetylcholine receptors” (J Med Chem, 2005)

Target: Neuronal acetylcholine receptor subunit alpha-7 (Rattus norvegicus, UniProt Q05941)
Assay: Inhibition of methyllycaconitine (MLA) binding to Nicotinic acetylcholine receptor alpha-7 in rat brain homogenates
Assay type: tissue-based

Sequence of Neuronal acetylcholine receptor subunit alpha-7 (Q05941 whole entry): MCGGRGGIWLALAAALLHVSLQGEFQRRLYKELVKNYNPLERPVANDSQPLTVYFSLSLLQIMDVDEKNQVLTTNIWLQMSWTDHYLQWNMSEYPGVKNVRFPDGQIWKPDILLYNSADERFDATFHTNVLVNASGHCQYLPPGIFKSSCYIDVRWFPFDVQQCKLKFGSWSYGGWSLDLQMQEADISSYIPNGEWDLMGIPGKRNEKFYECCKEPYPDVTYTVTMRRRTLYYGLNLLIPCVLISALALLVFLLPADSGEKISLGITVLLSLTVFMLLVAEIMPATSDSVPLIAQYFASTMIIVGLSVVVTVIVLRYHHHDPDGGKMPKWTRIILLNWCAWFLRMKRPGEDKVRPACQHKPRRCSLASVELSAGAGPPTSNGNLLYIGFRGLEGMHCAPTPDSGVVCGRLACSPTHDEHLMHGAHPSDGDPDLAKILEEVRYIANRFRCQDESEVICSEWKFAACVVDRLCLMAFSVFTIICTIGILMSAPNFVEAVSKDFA

Row | SMILES | Ki [nM]
1 | O=C(N[C@H]1CN2CCC1CC2)c1ccc(Cl)cc1 [listing 1 of 2 here] | 27

Target: T1, Serotonin 3 (5-HT3) receptor (Rattus norvegicus, UniProt P35563+Q9JJ16)
T1 sequence (P35563 whole entry): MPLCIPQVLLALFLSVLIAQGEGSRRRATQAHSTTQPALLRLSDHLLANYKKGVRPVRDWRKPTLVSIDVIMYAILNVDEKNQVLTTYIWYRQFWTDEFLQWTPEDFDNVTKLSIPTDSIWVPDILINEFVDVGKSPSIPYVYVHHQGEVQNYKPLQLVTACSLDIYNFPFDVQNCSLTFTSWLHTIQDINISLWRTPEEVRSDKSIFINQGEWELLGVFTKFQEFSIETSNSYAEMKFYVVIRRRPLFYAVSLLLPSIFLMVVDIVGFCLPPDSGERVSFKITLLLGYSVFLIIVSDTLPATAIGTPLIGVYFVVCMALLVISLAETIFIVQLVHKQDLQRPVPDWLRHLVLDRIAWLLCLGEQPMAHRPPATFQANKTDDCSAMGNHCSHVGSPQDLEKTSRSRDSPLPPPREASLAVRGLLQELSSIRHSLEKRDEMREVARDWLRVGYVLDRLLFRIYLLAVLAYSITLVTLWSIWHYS
T1 sequence (Q9JJ16 whole entry): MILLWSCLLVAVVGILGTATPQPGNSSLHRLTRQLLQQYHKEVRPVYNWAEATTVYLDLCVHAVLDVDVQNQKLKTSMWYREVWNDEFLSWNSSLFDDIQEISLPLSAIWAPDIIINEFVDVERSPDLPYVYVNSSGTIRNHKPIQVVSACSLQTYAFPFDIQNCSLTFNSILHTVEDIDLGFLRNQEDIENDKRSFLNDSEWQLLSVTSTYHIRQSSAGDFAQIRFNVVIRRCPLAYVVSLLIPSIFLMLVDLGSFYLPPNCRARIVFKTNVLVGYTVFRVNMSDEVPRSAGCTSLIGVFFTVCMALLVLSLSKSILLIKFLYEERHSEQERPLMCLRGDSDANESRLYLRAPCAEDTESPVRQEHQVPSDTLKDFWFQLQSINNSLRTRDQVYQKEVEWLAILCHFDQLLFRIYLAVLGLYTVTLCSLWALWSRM
Assay: Inhibition of [3H]GR-65630 binding to 5-hydroxytryptamine 3 receptor from rat brain homogenates

Row | SMILES | Ki [nM]
2 | O=C(N[C@H]1CN2CCC1CC2)c1ccc(Cl)cc1 [listing 1 of 2 here] | 1660

Target: not listed separately
Assay: Antagonistic activity against 5-hydroxytryptamine 3 receptor
Assay type: functional

Row | SMILES | Ki [nM]
3 | O=C(N[C@H]1CN2CCC1CC2)c1cc(Cl)cc2c1OCC2 | 1

Target: T1, Serotonin 3 (5-HT3) receptor
Assay: Functional antagonism of rat 5-hydroxytryptamine 3 receptor in cell-based FLIPR assay

Row | SMILES | IC50 [nM]
4 | O=C(N[C@H]1CN2CCC1CC2)c1ccc(Cl)cc1 [listing 1 of 2 here] | 4540

Target: Acetylcholine receptor; alpha1/beta1/delta/gamma (Homo sapiens, UniProt P02708+P07510+P11230+Q07001)
Assay: Antagonistic activity against Nicotinic acetylcholine receptor alpha-1-beta-1-delta-gamma
Assay type: functional

Sequence of Acetylcholine receptor; alpha1/beta1/delta/gamma (P02708 whole entry): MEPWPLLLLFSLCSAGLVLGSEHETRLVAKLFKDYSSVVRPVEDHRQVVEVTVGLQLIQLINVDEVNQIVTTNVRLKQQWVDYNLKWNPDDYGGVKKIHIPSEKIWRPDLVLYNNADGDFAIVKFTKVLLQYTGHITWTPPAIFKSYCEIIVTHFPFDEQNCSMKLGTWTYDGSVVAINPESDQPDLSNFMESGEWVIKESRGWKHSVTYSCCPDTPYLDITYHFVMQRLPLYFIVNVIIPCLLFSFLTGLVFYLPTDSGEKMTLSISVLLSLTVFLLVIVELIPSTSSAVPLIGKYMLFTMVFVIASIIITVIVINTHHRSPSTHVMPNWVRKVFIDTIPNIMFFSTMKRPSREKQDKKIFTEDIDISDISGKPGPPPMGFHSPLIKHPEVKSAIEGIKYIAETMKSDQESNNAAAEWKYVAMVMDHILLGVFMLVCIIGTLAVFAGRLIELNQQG
Sequence of Acetylcholine receptor; alpha1/beta1/delta/gamma (P07510 whole entry): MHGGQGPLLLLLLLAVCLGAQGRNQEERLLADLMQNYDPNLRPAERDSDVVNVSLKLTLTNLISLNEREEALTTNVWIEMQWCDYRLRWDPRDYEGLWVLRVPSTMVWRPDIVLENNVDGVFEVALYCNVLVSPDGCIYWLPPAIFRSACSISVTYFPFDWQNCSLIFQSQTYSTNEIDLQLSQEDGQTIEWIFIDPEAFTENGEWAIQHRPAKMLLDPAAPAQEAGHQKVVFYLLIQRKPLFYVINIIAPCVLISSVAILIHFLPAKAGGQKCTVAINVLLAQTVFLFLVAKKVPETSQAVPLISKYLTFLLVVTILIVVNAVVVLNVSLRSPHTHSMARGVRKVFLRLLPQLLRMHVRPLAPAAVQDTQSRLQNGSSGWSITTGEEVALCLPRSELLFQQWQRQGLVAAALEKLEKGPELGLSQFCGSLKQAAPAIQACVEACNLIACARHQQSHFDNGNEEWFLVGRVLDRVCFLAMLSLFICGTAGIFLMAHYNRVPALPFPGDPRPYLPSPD
Sequence of Acetylcholine receptor; alpha1/beta1/delta/gamma (P11230 whole entry): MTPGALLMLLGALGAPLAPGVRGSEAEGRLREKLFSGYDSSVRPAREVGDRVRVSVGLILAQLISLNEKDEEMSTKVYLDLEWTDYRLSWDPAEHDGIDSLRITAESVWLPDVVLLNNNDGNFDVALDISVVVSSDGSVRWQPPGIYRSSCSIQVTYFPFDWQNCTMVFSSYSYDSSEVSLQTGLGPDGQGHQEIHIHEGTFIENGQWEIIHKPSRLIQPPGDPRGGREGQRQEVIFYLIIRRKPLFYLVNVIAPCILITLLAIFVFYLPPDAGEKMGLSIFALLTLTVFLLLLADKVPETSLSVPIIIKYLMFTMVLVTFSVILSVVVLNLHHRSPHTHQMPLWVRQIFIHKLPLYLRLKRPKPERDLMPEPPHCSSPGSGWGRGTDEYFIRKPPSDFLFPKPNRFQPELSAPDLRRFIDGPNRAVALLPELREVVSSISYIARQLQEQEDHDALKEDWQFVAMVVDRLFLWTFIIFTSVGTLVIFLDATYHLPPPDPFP
Sequence of Acetylcholine receptor; alpha1/beta1/delta/gamma (Q07001 whole entry): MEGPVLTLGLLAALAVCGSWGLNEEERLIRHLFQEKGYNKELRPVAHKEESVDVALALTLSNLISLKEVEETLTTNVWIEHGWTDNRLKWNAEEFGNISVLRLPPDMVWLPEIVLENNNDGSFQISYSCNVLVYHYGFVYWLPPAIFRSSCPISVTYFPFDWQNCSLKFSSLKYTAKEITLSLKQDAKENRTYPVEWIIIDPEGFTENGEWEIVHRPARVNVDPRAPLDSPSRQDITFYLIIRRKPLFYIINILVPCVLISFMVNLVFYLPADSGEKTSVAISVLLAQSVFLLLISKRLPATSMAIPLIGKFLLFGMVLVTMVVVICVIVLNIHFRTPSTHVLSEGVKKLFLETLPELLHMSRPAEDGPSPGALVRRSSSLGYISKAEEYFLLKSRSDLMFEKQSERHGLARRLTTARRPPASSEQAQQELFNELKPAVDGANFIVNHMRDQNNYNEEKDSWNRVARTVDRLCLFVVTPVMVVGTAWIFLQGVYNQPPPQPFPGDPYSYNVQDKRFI

Row | SMILES | IC50 [nM]
5 | O=C(N[C@H]1CN2CCC1CC2)c1ccc(Cl)cc1 [listing 1 of 2 here] | ≥ 60000

Target: Neuronal acetylcholine receptor; alpha4/beta2 (Rattus norvegicus) (UniProt P09483+P12390)
Assay: Inhibition of [3H]cytisine binding to Nicotinic acetylcholine receptor alpha4-beta2 from rat brain homogenates at 1 uM

Row | SMILES | inhibition [%]
6 | O=C(N[C@H]1CN2CCC1CC2)c1ccc(Cl)cc1 [listing 2 of 2 here] | 14

Target: Neuronal acetylcholine receptor; alpha3/beta4 (Homo sapiens, UniProt P30926+P32297)
Assay: Antagonistic activity against Nicotinic acetylcholine receptor alpha3-beta4
Assay type: functional

Sequence of Neuronal acetylcholine receptor; alpha3/beta4 (P30926 whole entry): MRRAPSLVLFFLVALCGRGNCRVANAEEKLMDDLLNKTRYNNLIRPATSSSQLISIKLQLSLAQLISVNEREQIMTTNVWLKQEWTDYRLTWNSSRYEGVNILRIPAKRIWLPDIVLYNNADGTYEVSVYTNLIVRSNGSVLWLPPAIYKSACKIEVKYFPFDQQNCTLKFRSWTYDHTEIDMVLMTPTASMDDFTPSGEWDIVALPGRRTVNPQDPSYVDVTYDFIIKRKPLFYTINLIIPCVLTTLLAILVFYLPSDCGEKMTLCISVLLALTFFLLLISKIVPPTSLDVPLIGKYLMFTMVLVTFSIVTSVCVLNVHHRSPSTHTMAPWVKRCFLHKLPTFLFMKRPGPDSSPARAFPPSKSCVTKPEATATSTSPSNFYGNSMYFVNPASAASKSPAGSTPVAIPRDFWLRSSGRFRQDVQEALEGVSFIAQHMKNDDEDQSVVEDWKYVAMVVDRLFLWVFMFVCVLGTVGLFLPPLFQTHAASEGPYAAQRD
Sequence of Neuronal acetylcholine receptor; alpha3/beta4 (P32297 whole entry): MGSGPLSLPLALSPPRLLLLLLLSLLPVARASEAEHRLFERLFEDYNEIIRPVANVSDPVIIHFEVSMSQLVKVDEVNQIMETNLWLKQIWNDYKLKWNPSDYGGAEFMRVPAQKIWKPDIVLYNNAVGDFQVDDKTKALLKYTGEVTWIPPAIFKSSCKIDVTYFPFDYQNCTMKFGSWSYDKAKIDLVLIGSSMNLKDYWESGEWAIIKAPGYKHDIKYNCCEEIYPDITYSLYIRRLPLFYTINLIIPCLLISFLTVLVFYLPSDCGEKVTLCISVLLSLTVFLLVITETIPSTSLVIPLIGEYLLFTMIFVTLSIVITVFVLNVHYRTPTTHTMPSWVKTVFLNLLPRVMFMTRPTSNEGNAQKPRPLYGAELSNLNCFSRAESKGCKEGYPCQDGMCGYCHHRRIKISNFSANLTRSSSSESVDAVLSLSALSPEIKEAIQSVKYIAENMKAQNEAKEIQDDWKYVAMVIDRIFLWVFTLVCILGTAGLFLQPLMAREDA

Row | SMILES | IC50 [nM]
7 | O=C(N[C@H]1CN2CCC1CC2)c1ccc(Cl)cc1 [listing 1 of 2 here] | ≥ 60000

Target: not listed separately
Assay: Agonistic activity against Nicotinic acetylcholine receptor alpha-7 - 5-hydroxytryptamine 3 receptor chimera
Assay type: functional

Row | SMILES | EC50 [nM]
8 | Cc1ccc(C(=O)N[C@H]2CN3CCC2CC3)cc1 | 324
9 | O=C(N[C@H]1CN2CCC1CC2)c1ccc(I)cc1 | 494
10 | O=C(N[C@H]1CN2CCC1CC2)c1ccc(OCc2ccccc2)cc1 | > 100000
11 | CC(=O)c1ccc(C(=O)N[C@H]2CN3CCC2CC3)cc1 | 30000
12 | O=C(N[C@H]1CN2CCC1CC2)c1ccc(Cl)cc1 [listing 1 of 2 here] | 154
13 | O=C(N[C@H]1CN2CCC1CC2)c1ccccc1F | 16700
14 | CSc1ccc(C(=O)N[C@H]2CN3CCC2CC3)cc1 | 164
15 | CC(C)c1ccc(C(=O)N[C@H]2CN3CCC2CC3)cc1 | > 100000
16 | COc1ccc(C(=O)N[C@H]2CN3CCC2CC3)cc1 | 360
17 | O=C(N[C@H]1CN2CCC1CC2)c1ccc(F)cc1 | 506
18 | O=C(N[C@H]1CN2CCC1CC2)c1cccc(F)c1 | 3300
19 | O=C(N[C@H]1CN2CCC1CC2)c1ccc(SCc2ccccc2)cc1 | 100000
20 | O=C(N[C@H]1CN2CCC1CC2)c1ccccc1 | 1900
21 | CCCc1ccc(C(=O)N[C@H]2CN3CCC2CC3)cc1 | > 100000
22 | CC(=O)Nc1ccc(C(=O)N[C@H]2CN3CCC2CC3)cc1 | > 100000
23 | O=C(N[C@H]1CN2CCC1CC2)c1ccc(C(F)(F)F)cc1 | > 100000
24 | COc1cccc(C(=O)N[C@H]2CN3CCC2CC3)c1 | 2200
25 | COc1ccccc1C(=O)N[C@H]1CN2CCC1CC2 | > 100000
26 | O=C(N[C@H]1CN2CCC1CC2)c1ccc([N+](=O)[O-])cc1 | 1000
27 | O=C(N[C@H]1CN2CCC1CC2)c1ccc(Cl)cc1 [PNU-282987] | 128
28 | O=C(N[C@H]1CN2CCC1CC2)c1cccc(Cl)c1 | 1500
29 | CS(=O)(=O)c1ccc(C(=O)N[C@H]2CN3CCC2CC3)cc1 | > 100000
30 | CN(C)c1ccc(C(=O)N[C@H]2CN3CCC2CC3)cc1 | 30000
31 | CCc1ccc(C(=O)N[C@H]2CN3CCC2CC3)cc1 | 3760
32 | O=C(N[C@H]1CN2CCC1CC2)c1ccc(Br)cc1 | 206
